Test results: patent US20070232577A1, “Synthetic pentacyclic triterpenoids and derivatives of betulinic acid and betulin” (Advanced Life Sciences, Inc., priority 2006, published 2007)
Values after ≈ are worked out from the molar mass of the structure shown.

Assays:
A-375 (melanoma) = test: MTS cell viability assay, A-375; format: cell-based; conditions: Homo sapiens, 72 h
Procedure: (§1) All treatments were performed in triplicate. […] Cells were incubated at 37° C. for 72 h.

[1] = test system: OVCAR-3 (ovarian carcinoma); test: MTS cell viability assay, OVCAR-3; format: cell-based; conditions: Homo sapiens, 72 h
Procedure: as §1

SK-MEL-2 (melanoma) = test: MTS cell viability assay, SK-MEL-2; conditions: Homo sapiens, SK-MEL-2, 72 h, read-out: IC50 SK-MEL-2
Procedure: (§2) Cells were plated, the evening before treatment, for each treatment on 96-well plates (1×10^4 cells/well) in 100 μL volume per well. Drug solutions were prepared by diluting each test compound in DSMO (10 mM) with the appropriate cell growth media for each individual cell line, or in “Universal Media” if several cell lines were to be assayed in parallel, immediately prior to cell treatment. Universal Media consisted of 5 mL sodium pyruvate (100×liquid stock, CellGro), 5 mL glucose (100×, 45% liquid stock, CellGro), 5 mL Penicillin/Streptomycin (100×liquid stock, CellGro), 10 mL sodium bicarbonate (50×liquid stock, CellGro), 25 mL Fetal Calf Serum, 1.25 mL insulin (4 mg/mL, Gibco) and 449 mL RPMI media with 2 mM glutamine for a total volume of 500 mL. Cells were treated by aspirating media from each well and adding 80 μL of each drug solution to the attached cells. All treatments were performed in triplicate. Growth media (80 μL) were added to 3 blank wells (no cells) to measure background from the growth media Growth media alone (no DMSO or test compond) was added to 2 wells containing cells to measure the baseline MTS activity and vehicle (DMSO) control solutions were also included to monitor basal toxicity from DMSO. Cells were incubated at 37° C. for 72 h. MTS reagent (per 96-well plate) were prepared by combining 2 mL of MTS working solution (Cell Titer AQueous Non-Radioactive Cell Proliferation Assay, Promega, cat#G1112), 100 μL of 0.92 mg/mL phenazine methosulfate/Dulbecco's PBS and 2.1 mL growth media. MTS reagent (40 μL) were added to each well and incubated at 37° C. for 1.5 to 4 h. Plates were gently shaken by hand until solution in each well appeared homogenous. Absorbances at 490 nm were measured on a plate reader at multiple time points following the addition of MTS reagent for each plate. Triplicate absorbance (490 nm) measurements were averaged following background (no cell) subtraction for each drug concentration. Percent Cell Viability was calculated for each drug concentration using the following equation: {[Absorbances(drug treated)]/[Absorbances(DMSO treated)]}×100%
(§3) Percent viability (y-axis) was plotted against drug concentration (x-axis) and the resulting graph was used to determine the 50% inhibitory concentration (IC50) for each drug.

MCF-7 (breast carcinoma) = test: MTS cell viability assay, MCF-7; format: cell-based; conditions: Homo sapiens, MCF7, 72 h
Procedure: as §1

HT-29 (colon carcinoma) = test: MTS cell viability assay, HT-29; format: cell-based; conditions: Homo sapiens, 72 h
Procedure: as §1

Daoy (glioblastoma) = test: MTS cell viability assay, Daoy; conditions: for IC50: Homo sapiens, Daoy, 72 h, read-out: IC50 Daoy
Procedure: as §2, §3

LN-229 (glioblastoma) = test: MTS cell viability assay, LN-229; format: cell-based; conditions: Homo sapiens, 72 h
Procedure: as §1

Structure (SMILES)	IC50 (A-375 (melanoma)) [µg/mL]	IC50 [1] [µg/mL]	IC50 (SK-MEL-2 (melanoma)) [µg/mL]	IC50 (MCF-7 (breast carcinoma)) [µg/mL]	IC50 (HT-29 (colon carcinoma)) [µg/mL]	IC50 (Daoy (glioblastoma)) [µg/mL]	IC50 (LN-229 (glioblastoma)) [µg/mL]	selectivity of cytotoxicity for Daoy (in words) (Daoy (glioblastoma); MTS assay, Daoy versus other cell lines)
CC(C)[C@@H]1CC[C@]2(CO)CC[C@]3(C)[C@H](CC[C@@H]4[C@@]5(C)Cc6cnoc6C(C)(C)[C@@H]5CC[C@]43C)[C@@H]12 [Compound 49, [(1S,3aS,5aR,5bR,7aR,12aR,12bR,14aR,14bR)-1-isopropyl-5a,5b,8,8,12a-pentamethyl-1,2,3,4,5,5a,5b,6,7,7a,8,12,12a,12b,13,14,14a, 14b-octadecahydro-3aH-cyclopenta[7,8]chryseno[3,2-d]isoxazol-3a-yl]methanol]	10 (≈ 21.4 µM)	50 to 75 (≈ 107 to 160 µM)	6 (≈ 12.8 µM)	> 75	50 to 75 (≈ 107 to 160 µM)	4 (≈ 8.55 µM)	> 75	–
CC(C)[C@@H]1CC[C@]2(COC(=O)CBr)CC[C@]3(C)[C@H](CC[C@@H]4[C@@]5(C)Cc6cnoc6C(C)(C)[C@@H]5CC[C@]43C)[C@@H]12 [Compound 50, [(1S,3aS,5aR,5bR,7aR,12aR,12bR,14aR,14bR)-1-isopropyl-5a,5b,8,8,12a-pentamethyl-1,2,3,4,5,5a,5b,6,7,7a,8,12,12a,12b,13,14,14a, 14b-octadecahydro-3aH-cyclopenta[7,8]chryseno[3,2-d]isoxazol-3a-yl]methyl bromoacetate]	25 (≈ 42.5 µM)	42 (≈ 71.3 µM)	> 75	50 (≈ 84.9 µM)	40 (≈ 67.9 µM)	4 (≈ 6.79 µM)	48 (≈ 81.5 µM)	–
CC(C)[C@@H]1CC[C@]2(CO)CC[C@]3(C)[C@H](CC[C@@H]4[C@@]5(C)C=C(C#N)C(=O)C(C)(C)[C@@H]5CC[C@]43C)[C@@H]12 [Compound 55, (1S,3aS,5aR,5bR,7aR,11aR,11bR,13aR,13bR)-3a-(hydroxymethyl)-1-isopropyl-5a,5b,8,8,11a-pentamethyl-9-oxo-2,3,3a,4,5,5a,5b,6,7,7a,8,9,11a,11b,12,13,13a,13b-octadecahydro-1H-cyclopenta[a]chrysene-10-carbonitrile]	4 (≈ 8.59 µM)	8 (≈ 17.2 µM)	–	> 75	7 (≈ 15 µM)	–	–	–
C=C(C)[C@@H]1CC[C@]2(C=O)CC[C@]3(C)[C@H](CC[C@@H]4[C@@]5(C)CCC(=O)C(C)(C)[C@@H]5CC[C@]43C)[C@@H]12 [Compound 66, (1R,3aS,5aR,5bR,7aR,11aR,11bR,13aR,13bR)-5a,5b,8,8,11a-pentamethyl-9-oxo-1-(prop-1-en-2-yl)icosahydro-1H-cyclopenta[a]chrysene-3a-carbaldehyde]	15 (≈ 34.2 µM)	20 (≈ 45.6 µM)	28 (≈ 63.8 µM)	38 (≈ 86.6 µM)	21 (≈ 47.9 µM)	6 (≈ 13.7 µM)	35 (≈ 79.8 µM)	selective toxicity towards Daoy
C=C(C)[C@@H]1CC[C@]2(CNCCCl)CC[C@]3(C)[C@H](CC[C@@H]4[C@@]5(C)CC[C@H](O)C(C)(C)[C@@H]5CC[C@]43C)[C@@H]12 [Compound 70, (1R,3aS,5aR,5bR,7aR,9S,11aR,11bR,13aR,13bR)-3a-((2-chloroethylamino)methyl)-5a,5b,8,8,11a-pentamethyl-1-(prop-1-en-2-yl)icosahydro-1H-cyclopenta[a]chrysen-9-ol]	20 (≈ 39.7 µM)	10 (≈ 19.8 µM)	35 (≈ 69.4 µM)	54 (≈ 107 µM)	19 (≈ 37.7 µM)	< 2	–	–
C=C(C)[C@@H]1CC[C@]2(C(=O)O)CC[C@]3(C)[C@H](CC[C@@H]4[C@@]5(C)CCC(NCCO)C(C)(C)[C@@H]5CC[C@]43C)[C@@H]12 (stereo partly drawn) [Compound 77, (1R,3aS,5aR,5bR,7aR,11aR,11bR,13aR,13bR)-9-(2-hydroxyethylamino)-5a,5b,8,8,11a-pentamethyl-1-(prop-1-en-2-yl)icosahydro-1H-cyclopenta[a]chrysene-3a-carboxylic acid]	14 (≈ 28 µM)	28 (≈ 56 µM)	36 (≈ 72 µM)	35 (≈ 70 µM)	16 (≈ 32 µM)	< 2	–	–
CC(C)[C@@H]1CC[C@]2(C(=O)O)CC[C@]3(C)[C@H](CC[C@@H]4[C@@]5(C)CCC(=O)C(C)(C)[C@@H]5CC[C@]43C)[C@@H]12 [Compound 87, (1S,3aS,5aR,5bR,7aR,11aR,11bR,13aR,13bR)-1-isopropyl-5a,5b,8,8,11a-pentamethyl-9-oxoicosahydro-1H-cyclopenta[a]chrysene-3a-carboxylic acid]	22 (≈ 48.2 µM)	22 (≈ 48.2 µM)	16 (≈ 35 µM)	38 (≈ 83.2 µM)	35 (≈ 76.6 µM)	5 (≈ 10.9 µM)	28 (≈ 61.3 µM)	–
